The target in assay [1] is T1, Full-length PRMT5 enzyme (NCBI Reference sequence NP_006100.2) co-expressed with His6-MEP50 (Homo sapiens (Human), UniProt O14744). Kind of assay: PRMT5 Biochemical Assay. The note with it: 200 nM peptide substrate, 1 μM S-Adenosyl methionine, 4 hours at 37° C., Transcreener EPIGEN fluorescence polarisation. As to the method:
Compounds of the invention may be tested for in vitro activity in the following assay: A histone H4 derived peptide is used as substrate (amino acid sequence: […]N H2). Full-length PRMT5 enzyme (NCBI Reference sequence NP_006100.2) was co-expressed with His6-MEP50 in insect cells and purified via Nickel immobilized metal affinity and gel filtration chromatography (“the enzyme”).
The 6 μL assay reactions are run in Greiner brand black 384-well low volume plates. All reactions contained assay buffer (phosphate buffered saline, 0.01% (v/v) Tween-20, 0.01% (w/v) albumin from chicken egg white, 1 mM dithiothreitol, 200 nM peptide substrate, 1 μM S-Adenosyl methionine, and 15 ng/reaction enzyme, with the enzyme being omitted from negative control reactions. Compounds were added in a volume of 100 nL from dilution series prepared in DMSO, positive and negative control reactions receiving the same volume DMSO without compound. The plates were sealed with adhesive seals and incubated for 4 hours at 37° C. Reaction progress was measured using the Transcreener™ EPIGEN methyltransferase assay (BellBrook Labs, Madison, Wis.) as recommended by the manufacturer. To each reaction 2 μL detection mix were added, containing coupling enzymes, fluorescence polarisation tracer, and AMP antibody. Plates were incubated for 90 min before being read on a PerkinElmer EnVision™ plate reader in fluorescence polarisation mode. IC50 values were obtained from the raw readings by calculating percent inhibition (%1) for each reaction relative to controls on the same plate (% I=(I−CN)/(CP−CN) where CN/CP are the averages of the negative/positive reactions, respectively), then fitting the % I data vs. compound concentration [I] to % I=(A+((B−A)/(1+((C/[I])^D)))) where A is the lower asymptote, B is the upper asymptote, C is the IC50 value, and D is the slope.
In general terms: In fluorescence polarisation assays a small probe gives low polarisation when free and higher when bound to something large.

The test system of assay [2] is symmetrical dimethylation of arginine (Di-Methyl Histone H4R3) in cell line TE11. The assay can be described thus: PRMT5 Biomarker Assay (symmetrical dimethylation of arginine, Di-Methyl Histone H4R3 ELISA). The assay is classed as cell-based. The note with it: Homo sapiens, TE-11; TE11 cells, 72 h incubation, EpiQuik ELISA, corrected for total protein. How it is done: (§1) Compounds of the invention may be tested for potency to inhibit symmetrical dimethylation of arginine in the following assay:
The cell line TE11 was seeded at a density of 12,000 cells per well in 96 well tissue culture plates in DME medium and 10% foetal bovine serum, and allowed to adhere overnight under standard culture conditions (37° C., 5% CO2). Compound dilutions prepared in DMSO were added to the medium, with negative control wells reserved for treatment with DMSO only and positive controls receiving a potent PRMT5 inhibitor. The concentration of the inhibitor had been previously determined to give maximum inhibition of the methylation. After incubation for 72 h, cells were washed twice in ice-cold PBS, lysed in lysis buffer (20 mM Tris pH 7.4, 135 mM NaCl, 1.5 mM MgCl2, 1 mM EGTA, 10% glycerol and 1% Triton-X100), centrifuged at 15,000×g and the supernatants collected for subsequent analysis. The methylation level was determined using the EpiQuik™ Global Di-Methyl Histone H4R^3 Quantification ELISA Kit (Epigentek, Farmingdale, N.Y.) as per the manufacturer's recommendations; in parallel the total protein amount in the lysate was quantified using a Lowry protein assay. […]

For assay [3], the target named is T1, Full-length PRMT5 enzyme (NCBI Reference sequence NP_006100.2) co-expressed with His6-MEP50. The assay can be described thus: Revised PRMT5 Biochemical Assay. Particulars: 1 μM peptide substrate, 1 μM S-Adenosyl methionine, 4 hours at 37 degree Celsius, Transcreener EPIGEN fluorescence polarisation. In outline: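 Full-length PRMT5 co-expressed with His6-MEP50 in insect cells (15 ng/reaction) was run with 1 μM H4-derived peptide and 1 μM SAM in PBS, 0.01% Tween-20, 0.01% albumin and 1 mM DTT for 4 h at 37 °C. Product was read by Transcreener EPIGEN fluorescence polarisation, and IC50 came from a 4-parameter fit.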

Assay [4] deals with symmetrical dimethylation of arginine (Di-Methyl Histone H4 Arginine 3) in cell line TE11. The assay can be described thus: Revised PRMT5 Biomarker Assay (Di-Methyl Histone H4 Arginine 3 immunofluorescence). It is filed as cell-based. Particulars: TE11 cells, 72 hours. As to the method: as §1
The cell line TE11 was seeded at a density of 6,000 cells per well in 96 well optical quality tissue culture plates in DME medium and 10% foetal bovine serum, and allowed to adhere for 5 hours under standard culture conditions (37 degree Celsius, 5% CO2). […] After incubation for 72 hours, the cells were fixed with 3.7% formaldehyde in PBS for 30 minutes at room temperature, washed with phosphate buffer saline and blocked with Odyssey blocking buffer (LI-COR, Lincoln, Nebr.). Rabbit anti-Di-Methyl Histone H4 Arginine 3 specific antibody (Epigentek) in Odyssey blocking buffer was added and incubated for 14 hours at 4 degree Celsius. […] Alternatively, the plates were imaged on a PerkinElmer Phenix high content imaging platform. […] The resulting mean intensity per cell was directly converted to percent inhibition as outlined above (IC50, imager based).

The mark [5] stands for this setting: Homo sapiens, TE-11, PerkinElmer Phenix high content imaging, mean intensity per cell, read-out: IC50 - image based.

Where a name gives a salt, the structure may show the parent alone. Read-outs that look alike come from different tables or passages of the source.

Broadly, the IC50 is the point on the concentration scale where inhibition reaches its midpoint.

T1 sequence (O14744 whole entry): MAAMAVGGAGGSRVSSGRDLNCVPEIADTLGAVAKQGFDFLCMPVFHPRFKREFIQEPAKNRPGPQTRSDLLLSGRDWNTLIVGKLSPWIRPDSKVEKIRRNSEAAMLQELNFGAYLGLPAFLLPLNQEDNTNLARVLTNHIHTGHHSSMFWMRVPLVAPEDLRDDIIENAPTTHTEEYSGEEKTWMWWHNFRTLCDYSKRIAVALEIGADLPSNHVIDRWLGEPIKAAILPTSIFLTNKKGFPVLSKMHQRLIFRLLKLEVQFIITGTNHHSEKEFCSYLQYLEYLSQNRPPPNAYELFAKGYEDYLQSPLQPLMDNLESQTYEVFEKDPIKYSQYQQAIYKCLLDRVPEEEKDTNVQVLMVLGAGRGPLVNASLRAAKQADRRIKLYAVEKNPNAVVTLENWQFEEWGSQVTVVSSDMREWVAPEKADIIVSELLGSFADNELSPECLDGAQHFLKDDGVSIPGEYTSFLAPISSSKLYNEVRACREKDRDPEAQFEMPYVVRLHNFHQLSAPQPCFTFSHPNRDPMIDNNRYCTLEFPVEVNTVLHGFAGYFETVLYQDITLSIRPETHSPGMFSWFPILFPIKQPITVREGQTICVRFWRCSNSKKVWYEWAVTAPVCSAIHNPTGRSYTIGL
T1 sequence (Q9BQA1 whole entry partner): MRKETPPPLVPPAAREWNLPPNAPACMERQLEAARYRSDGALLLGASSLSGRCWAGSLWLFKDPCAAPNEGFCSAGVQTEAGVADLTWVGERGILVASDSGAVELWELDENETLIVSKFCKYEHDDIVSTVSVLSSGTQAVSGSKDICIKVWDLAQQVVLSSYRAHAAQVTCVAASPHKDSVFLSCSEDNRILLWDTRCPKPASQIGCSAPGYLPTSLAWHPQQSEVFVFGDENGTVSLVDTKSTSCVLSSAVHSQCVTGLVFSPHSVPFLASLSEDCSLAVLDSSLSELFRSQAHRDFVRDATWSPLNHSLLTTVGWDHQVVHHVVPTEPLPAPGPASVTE

As for `O=C(NCC(O)CC1Cc2ccccc2CN1)c1ccc(C(=O)N2CCOCC2)cc1` (centres unmarked) [Example 1, N-(2-Hydroxy-3-(1,2,3,4-tetrahydroisoquinolin-3-yl)propyl)-4-(morpholine-4-carbonyl)benzamide], the IC50 in assay [1] was determined as 4690 nM; in assay [2] it was 956 nM.
With `O=C(NCC(O)C1Cc2ccccc2CN1)c1ccc(C(=O)N2CCOCC2)cc1` (centres unmarked) [Example 2, N-(2-hydroxy-2-(1,2,3,4-tetrahydroisoquinolin-3-yl)ethyl)-4-(morpholine-4-carbonyl)benzamide], the IC50 worked out at 763 nM in assay [1] and 7.2 nM in assay [2].
For `O=C(NC[C@H](O)[C@H]1Cc2ccccc2CN1)c1ccc(C(=O)N2CCOCC2)cc1` [Example 53, N—((S)-2-hydroxy-2-((R)-1,2,3,4-tetrahydroisoquinolin-3-yl)ethyl)-4-(morpholine-4-carbonyl)benzamide hydrochloride], the figures for the IC50 in assay [1] and in assay [3] were 22000 nM and 21200 nM, respectively.
As to `O=C(NC[C@@H](O)[C@@H]1Cc2ccccc2CN1)c1ccnc(OC2CCOC2)c1` (stereo partly drawn) [Example 104, N—((R)-2-Hydroxy-2-((S)-1,2,3,4-tetrahydroisoquinolin-3-yl)ethyl)-2-((tetrahydrofuran-3-yl)oxy)isonicotinamide bis(2,2,2-trifluoroacetate)], the IC50 in assay [4] (setting [5]) stood at 12 nM; in assay [3], 147 nM.
In the case of `COC(=O)N1[C@@H]2CC[C@H]1C[C@@H](Oc1cc(C(=O)NC[C@@H](O)[C@@H]3Cc4ccccc4CN3)ccn1)C2` [Example 105, Methyl (1R,3r,5S)-3-((4-(((R)-2-hydroxy-2-((S)-1,2,3,4-tetrahydroisoquinolin-3-yl)ethyl)carbamoyl)pyridin-2-yl)oxy)-8-azabicyclo[3.2.1]octane-8-carboxylate], the IC50 in assay [4] (PerkinElmer Phenix high content imaging, mean intensity per cell, read-out: IC50 - image based) was determined as 1 nM; in assay [3], 38 nM.
For `O=C(NC[C@@H](O)[C@@H]1Cc2ccccc2CN1)c1ccc(C(=O)N2C3CCC2COC3)cc1C(F)F` [Example 106, 4-(3-Oxa-8-azabicyclo[3.2.1]octane-8-carbonyl)-2-(difluoromethyl)-N—((R)-2-hydroxy-2-((S)-1,2,3,4-tetrahydroisoquinolin-3-yl)ethyl)benzamide], the figures for the IC50 in assay [4] (setting [5]) and in assay [3] were 5 nM and 212 nM, respectively.
With `CCOc1cc(C(=O)N2C3CCC2COC3)ccc1C(=O)NC[C@@H](O)[C@@H]1Cc2ccc(C)cc2CN1` [Example 108, 4-(3-Oxa-8-azabicyclo[3.2.1]octane-8-carbonyl)-2-ethoxy-N—((R)-2-hydroxy-2-((S)-7-methyl-1,2,3,4-tetrahydroisoquinolin-3-yl)ethyl)benzamide], the IC50 is 1 nM in assay [4] (Homo sapiens, TE-11, PerkinElmer Envision fluorescence intensity, corrected for Hoechst 33342, read-out: IC50 - plate-reader based) and 17 nM in assay [3].

Source of the values: patent US10494376B2, “Tetrahydroisoquinoline derived PRMT5-inhibitors” (CTXT PTY LTD, priority 2014, dated 2019).
